Test [1] deals with TNF alpha production in LPS-stimulated human blood (Buffy coat). Put plainly: TNF alpha production by stimulation with LPS in whole blood cultures. The following applies: Homo sapiens; Table 1B, Formula I compounds; read-out: IC50 h TNFα. In kind it is cell-based. As to the method: Compounds were assayed to generate IC50 numbers as described in Example 54, using the following assay protocol (see Tables 3B and 4B for compounds and results).
Protocol • 1) Obtained 20 mM DMSO aliquots of desired concentrations of compounds (see Tables 3B and 4B for compounds tested and results). Placed 2 μl/well compound in DMSO in the top row of the dilution plate. Added 98 μl of RPMI 1640 media w/2.5% heat inactivated FBS.
2) Made the same media with 2% DMSO in it. Added 60 μl/well to well to make compound titration. Took 30 μl of top row and did a 1:3 dilution down the plate. In column 11 added 4 wells of 50 μM roflumilast and piclamilast. In column 12 added 2% DMSO media.
3) Transfered 20 μl/well into assay plates in duplicate.
4) Obtained human Buffy coat.
5) Diluted blood with 7 volumes of RPMI 1640 media with 1% P/S and 2.5% heat inactivated FBS (a 1:8 dilution)
6) Added160 μl/well of diluted blood to the assay plates.
7) Incubated for 1 hour at 37 degrees 5% CO2
8) Diluted LPS (which was already diluted to 1 mg/ml in PBS, 20 μl aliquots frozen −20 C.) to 10× desired final concentration to make a […] dilution (final concentration should be 100 ng/ml).
9) After 1 hour incubation added 20 μl/well of LPS to plates. A non-LPS treated background was also prepared. Samples were put on the shaker for a one minute 900 rpm.
10) Incubated for 4 hours in incubator.
11) After incubation, put on the shaker for a one minute 900 rpm and spun plate at 100 g for 10 minutes, Decel 5.
12) Carefully pipetted the top 75 μl supernatant into a new plate. Samples were frozen as needed.
Biosource hu-TNF ALPHA ELISA
• REAGENTS USED • DPBS 10×: VWR45000-428 (dilute 1:10 with Millipore Water) • TWEEN 20: FISHER BP337-500 • CAPTURE AND DETECTION ANTIBODIES: R&D DY510E • STREP-HRP: Biosource part SNN4004X • COLOR REAGENTS: R&D DY994 • STOP SOLUTION: from chemistry, or R&D DY999 • 1) Thawed samples to RT as needed. • 2) Added 50 μl Incubation buffer/well. • 3) Added 50 μl blood samples +50 μl Diluent buffer • 4) Incubated 2 hours at room temp. • 5) Washed the plate 4× with 300 μl/well wash buffer with microfill. Wash buffer was DPBS with 0.05% Tween pH 7.2-7.4 • 6) Added 100 μl biotinylated anti-TNFalpha • 7) Incubateed 1 hours at room temp. • 8) Washed the plate 4× with 300 μl/well wash buffer with microfill. Wash buffer was DPBS with 0.05% Tween pH 7.2-7.4 • 9) Added^100 μl Streptavidin-HRP working solution • 10) Incubated for 30 minutes at room temp. • 11) Washed the plate 4× with 300 μl/well wash buffer with microfill. Wash buffer was DPBS with 0.05% Tween pH 7.2-7.4 • 12) Added 100 μl Chromagen • 13) Incubated in the dark for 30 minutes until the blue color developed satisfactorily. • 14) Added 100 μl/well stop solution (2 N H2SO4). • 15) Read plate on WallacVictor at 450 nm for 0.1 sec/well

The target of test [2] is T1, full-length human PDE4D5 isozyme (Homo sapiens, UniProt Q08499).
T1 construct: The full-length human PDE4D5 isozyme; His6 (N); TEV cleavage site (N); made in house; host or cells: baculovirus infected insect cells (unpurified lysate)
Briefly: PDE4 IC50 determination by Scintillation Proximity Assay, PDE4D5. The format is biochemical. As to conditions: Table 1B, Formula I compounds; read-out: IC50 PDE4D5. An outline of the steps:
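Unpurified His6-tagged full-length human PDE4D5 from baculovirus-infected insect cell lysate, 0.083 μl glycerol stock/ml, hydrolysed [3H]cAMP in Tris pH 7.5/MgCl/EGTA buffer, 30 min at 30°. ZnSO4/SPA beads stop; [3H]AMP counted. Controls: DMSO and roflumilast; 11-point duplicate curves, nonlinear-regression IC50.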

Test [3] concerns the target T2, PDE4B: The catalytic domain of human PDE4B from S152-S528 (Homo sapiens, UniProt Q07343).
T2 construct: His6 (N); thrombin cleavage site (N); made in house; host or cells: E. coli
Briefly: PDE4 IC50 determination by Scintillation Proximity Assay, PDE4B. The format is biochemical. The following applies: Table 1B, Formula I compounds; read-out: IC50 PDE4B. Summed up:
(§1)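 Radiometric SPA: PDE4B (80 ng/ml) or PDE4D (4 ng/ml) hydrolysed [^3H]cAMP over 30 min at 30°, and the bead-bound [^3H]AMP was scintillation-counted.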

Test [4] deals with T3, full-length human PDE4B2 isozyme (Homo sapiens, UniProt Q07343).
T3 construct: The full-length human PDE4B2 isozyme; His6 (N); TEV cleavage site (N); made in house; host or cells: baculovirus infected insect cells (unpurified lysate)
Put plainly: PDE4 IC50 determination by Scintillation Proximity Assay, PDE4B2. In kind it is biochemical. As to conditions: Table 1B, Formula I compounds; read-out: IC50 PDE4B2. Summed up: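 Unpurified His6-TEV-tagged full-length human PDE4B2 from baculovirus-infected insect cell lysate (2.5 μl of 50% glycerol stock/ml) hydrolysed [3H]cAMP in 50 mM Tris pH 7.5, 8.3 mM MgCl, 1.7 mM EGTA, 0.01% BSA for 30 min at 30°. Stopped with SPA beads in 18 mM ZnSO4; [3H]AMP scintillation counted, IC50 by non-linear regression.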

The next test concerns the target T4, PDE4D (Homo sapiens, UniProt Q08499).
T4 construct: PDE4D: The catalytic domain of human PDE4B from S3 16-V692; His6 (N); thrombin cleavage site (N); made in house; host or cells: E. coli
Briefly: PDE4 IC50 determination by Scintillation Proximity Assay, PDE4D. In kind it is biochemical. The following applies: Table 1B, Formula I compounds; read-out: IC50 PDE4D. An outline of the steps:
as §1

The structures appear in SMILES notation.

T3 sequence (Q07343 1-564 isoform Q07343-2): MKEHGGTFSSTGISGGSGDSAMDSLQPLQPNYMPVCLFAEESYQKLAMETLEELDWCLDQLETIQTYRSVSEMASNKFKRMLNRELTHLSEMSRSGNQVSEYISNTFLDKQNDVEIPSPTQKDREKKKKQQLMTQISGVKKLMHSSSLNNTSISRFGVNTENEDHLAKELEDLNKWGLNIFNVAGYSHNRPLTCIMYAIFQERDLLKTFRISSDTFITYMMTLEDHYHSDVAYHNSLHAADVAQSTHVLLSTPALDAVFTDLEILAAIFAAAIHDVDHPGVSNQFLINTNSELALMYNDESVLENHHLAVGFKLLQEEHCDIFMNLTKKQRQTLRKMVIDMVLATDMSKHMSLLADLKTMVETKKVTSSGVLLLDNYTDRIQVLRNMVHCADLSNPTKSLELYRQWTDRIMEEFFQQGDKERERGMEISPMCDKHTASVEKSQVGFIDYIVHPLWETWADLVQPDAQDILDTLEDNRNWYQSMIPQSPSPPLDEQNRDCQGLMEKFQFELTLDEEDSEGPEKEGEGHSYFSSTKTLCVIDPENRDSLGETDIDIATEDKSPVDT
T4 sequence (Q08499 380-756): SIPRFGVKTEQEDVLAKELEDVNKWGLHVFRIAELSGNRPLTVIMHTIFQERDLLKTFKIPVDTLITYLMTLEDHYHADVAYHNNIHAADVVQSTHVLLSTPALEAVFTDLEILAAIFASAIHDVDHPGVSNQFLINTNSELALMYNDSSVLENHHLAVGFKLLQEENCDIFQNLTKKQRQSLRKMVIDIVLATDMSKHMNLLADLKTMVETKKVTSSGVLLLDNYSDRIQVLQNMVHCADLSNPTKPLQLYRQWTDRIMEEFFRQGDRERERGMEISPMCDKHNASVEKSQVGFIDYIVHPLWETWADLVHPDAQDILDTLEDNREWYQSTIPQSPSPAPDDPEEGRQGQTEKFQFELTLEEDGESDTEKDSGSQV
T2 sequence (Q07343 with tags, fused parts or gaps): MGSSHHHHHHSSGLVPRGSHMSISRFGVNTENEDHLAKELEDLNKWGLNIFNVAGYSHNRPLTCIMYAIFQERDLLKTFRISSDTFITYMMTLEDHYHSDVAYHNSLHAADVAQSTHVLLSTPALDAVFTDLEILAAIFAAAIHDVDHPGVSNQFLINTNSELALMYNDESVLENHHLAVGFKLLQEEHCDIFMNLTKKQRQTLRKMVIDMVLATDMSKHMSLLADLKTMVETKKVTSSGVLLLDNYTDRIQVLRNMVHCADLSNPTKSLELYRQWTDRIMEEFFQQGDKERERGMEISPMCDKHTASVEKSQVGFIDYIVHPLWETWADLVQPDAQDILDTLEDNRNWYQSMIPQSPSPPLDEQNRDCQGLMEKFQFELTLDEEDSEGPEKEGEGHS
T1 sequence (Q08499 1-745 isoform Q08499-6): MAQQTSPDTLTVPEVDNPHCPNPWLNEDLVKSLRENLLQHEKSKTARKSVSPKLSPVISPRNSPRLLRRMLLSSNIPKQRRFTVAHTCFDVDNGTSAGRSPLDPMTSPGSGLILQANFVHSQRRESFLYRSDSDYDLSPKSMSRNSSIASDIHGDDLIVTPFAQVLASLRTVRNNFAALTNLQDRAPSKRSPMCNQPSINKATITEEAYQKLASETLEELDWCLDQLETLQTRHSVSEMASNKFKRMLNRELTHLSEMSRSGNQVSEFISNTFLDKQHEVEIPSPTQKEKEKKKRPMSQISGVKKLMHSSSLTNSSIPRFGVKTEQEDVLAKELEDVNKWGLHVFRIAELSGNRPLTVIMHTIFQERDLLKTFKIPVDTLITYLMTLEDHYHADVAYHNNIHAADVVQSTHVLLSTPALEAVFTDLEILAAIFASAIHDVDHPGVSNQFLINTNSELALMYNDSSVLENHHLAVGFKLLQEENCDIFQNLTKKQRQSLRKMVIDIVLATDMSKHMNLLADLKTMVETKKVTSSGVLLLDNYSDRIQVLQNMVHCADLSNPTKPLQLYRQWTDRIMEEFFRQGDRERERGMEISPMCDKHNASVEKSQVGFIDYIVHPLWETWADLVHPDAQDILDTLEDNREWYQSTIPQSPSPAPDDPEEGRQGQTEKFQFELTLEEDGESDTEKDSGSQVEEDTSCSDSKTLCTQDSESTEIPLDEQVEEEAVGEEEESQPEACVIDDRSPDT

`Cc1nc(-c2cnccn2)sc1C(=O)c1sc(NC2CCCC2)c(C(N)=O)c1N` [Compound 1-252, 4-Amino-2-cyclopentylamino-5-(4-methyl-2-pyrazin-2-yl-thiazole-5-carbonyl)-thiophene-3-carboxylic acid amide]: the IC50 in test [1] was greater than 10 µM; in test [2], less than 10 µM; in test [3] it was less than 10 µM; in test [4], less than 10 µM; on PDE4D, less than 10 µM.

The values above are taken from patent publication US7585859B2, “PDE4B inhibitors and uses therefor” (Plexxikon, Inc., priority 2004, dated 2009).
